Source: patent US20140350117A1, “Topical Scar Treatment Composition and Method of Using Same” (PROFESSIONAL COMPOUNDING CENTERS OF AMERICA, priority 2013, published 2014)
Where a name gives a salt, the structure may show the parent alone.

Tests used:
[1] = test system: TGF-β; assay: luciferase bioassay utilizing mink lung epithelial cells for total TGF-β in keloid fibroblasts culture; assay type: cell-based; settings: 48-hour exposure
Excerpt: TGF-β is correlated with luciferase activity and reported in relative light units.

[2] = test system: keloid and hypertrophic scar cells; settings: stated to correspond to about 0.01% tamoxifen citrate; cited from earlier work
[3] = test system: fibroblast cells; settings: cited from earlier work
[4] = test system: collagen; settings: cited from earlier work

Structure (SMILES): CC/C(=C(\c1ccccc1)c1ccc(OCCN(C)C)cc1)c1ccccc1 [tamoxifen citrate]
- total TGF-β levels [1]: dose-dependent decrease
- percent reduction of TGF-β ([1]; about 8 μM): about 75%
- TGF-β level after treatment ([1]; about 8 μM, reduced from about 200 pg/ml): about 50 pg/ml
- concentrations having a deadly effect on keloid and hypertrophic scar cells [2]: greater than 20 μM
- proliferation of normal dermal and keloid fibroblasts [3]: decrease proliferation
- synthesis of collagen by keloid fibroblasts [4]: decreasing the synthesis of collagen
